PMC12591375 (British journal of pharmacology, 2022)
Marks after values point to notes of the source that are not given here.

What was measured:
Assay type in all cases: cell-based
CB2 [1] = target: T1, CB2 (Homo sapiens, UniProt P34972, Q63R); experiment: β-arrestin 2 translocation real-time BRET assay, wild-type CB2; conditions: for pEC50, β-arrestin 2 translocation to CB2: HEK 293 cells
CB2 [2] = target: T1, CB2; experiment: β-arrestin 1 translocation real-time BRET assay; conditions: HEK 293 cells
CB2 [3] = target: T1, CB2; experiment: β-arrestin 2 translocation real-time BRET assay, wild-type CB2; conditions: for Span, β-arrestin 2 translocation to CB2: HEK 293 cells
CB2 [4] = target: T1, CB2; experiment: β-arrestin 1 translocation real-time BRET assay; conditions: for EC50: pEC50, β-arrestin 1 translocation to CB2, HEK 293 cells; for pEC50, β-arrestin 1 translocation to CB2: HEK 293 cells

T1 sequence (P34972 whole entry Q63R): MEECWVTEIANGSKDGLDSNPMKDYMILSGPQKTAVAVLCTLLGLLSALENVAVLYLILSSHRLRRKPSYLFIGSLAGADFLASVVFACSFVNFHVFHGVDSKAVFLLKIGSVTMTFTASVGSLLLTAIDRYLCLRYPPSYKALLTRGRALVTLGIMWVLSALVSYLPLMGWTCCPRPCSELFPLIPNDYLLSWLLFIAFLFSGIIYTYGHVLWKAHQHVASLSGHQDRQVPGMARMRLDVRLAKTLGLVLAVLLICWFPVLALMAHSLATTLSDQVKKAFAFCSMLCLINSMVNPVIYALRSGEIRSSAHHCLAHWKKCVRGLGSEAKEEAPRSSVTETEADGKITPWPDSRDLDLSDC

SMILES	Span, β-arrestin 1 translocation to CB2 (CB2 [2]; coexpression of GRK1)	Span, β-arrestin 1 translocation to CB2 (CB2 [2]; coexpression of GRK2)	Span, β-arrestin 1 translocation to CB2 (CB2 [2]; coexpression of GRK3)	Span, β-arrestin 1 translocation to CB2 (CB2 [2]; coexpression of GRK4)	Span, β-arrestin 1 translocation to CB2 (CB2 [2]; coexpression of GRK5)	Span, β-arrestin 1 translocation to CB2 (CB2 [2]; coexpression of GRK6)	Span, β-arrestin 1 translocation to CB2 (CB2 [2]; mock (no GRK))	Span, β-arrestin 2 translocation to CB2 (CB2 [3]; coexpression of GRK1, Table 2)	Span, β-arrestin 2 translocation to CB2 (CB2 [3]; coexpression of GRK2, Table 2)	Span, β-arrestin 2 translocation to CB2 (CB2 [3]; coexpression of GRK3, Table 2)	Span, β-arrestin 2 translocation to CB2 (CB2 [3]; coexpression of GRK4, Table 2)	Span, β-arrestin 2 translocation to CB2 (CB2 [3]; coexpression of GRK5, Table 2)	Span, β-arrestin 2 translocation to CB2 (CB2 [3]; coexpression of GRK6, Table 2)	Span, β-arrestin 2 translocation to CB2 (CB2 [3]; mock (no GRK), Table 2)	further results
CCCCC/C=C\C/C=C\C/C=C\C/C=C\CCCC(=O)OC(CO)CO [2-AG, 2-Arachidonoylglycerol]	83.57 (2.82) ^* ΔBRET.s	71.73 (3.39) ^* ΔBRET.s	68.57 (2.99) ^* ΔBRET.s	62.00 (2.72) ΔBRET.s	65.96 (1.69) ^* ΔBRET.s	74.27 (4.00) ^* ΔBRET.s	56.14 (1.52) ΔBRET.s	198.6 (8.08) ΔBRET.s	165.5 (10.92) ^* ΔBRET.s	164.7 (9.83) ^* ΔBRET.s	191.3 (6.31) ΔBRET.s	157.1 (4.07) ^* ΔBRET.s	158.6 (6.39) ^* ΔBRET.s	204.9 (14.67) ΔBRET.s	EC50 (CB2 [1]; pEC50, β-arrestin 2 translocation to CB2, HEK 293 cells, mock (no GRK), Table 2): 2.29 µM; lowering of efficacy of β-arrestin 2 translocation by GRK coexpression (CB2 [3]; coexpression of GRK2, GRK3 and GRK5 versus mock): 10–20%; EC50 (CB2 [4]; coexpression of GRK1): 3.24 µM; EC50 (CB2 [4]; coexpression of GRK2): 2.29 µM; EC50 (CB2 [4]; coexpression of GRK3): 2 µM; EC50 (CB2 [4]; coexpression of GRK4): 2.88 µM; EC50 (CB2 [4]; coexpression of GRK5): 3.63 µM; EC50 (CB2 [4]; coexpression of GRK6): 3.31 µM; EC50 (CB2 [4]; mock (no GRK)): 3.55 µM
COC(=O)[C@@H](NC(=O)c1nn(Cc2ccc(F)cc2)c2ccccc12)C(C)C [AMB-FUBINACA]	47.12 (3.44) ^* ΔBRET.s	45.12 (2.90) ^* ΔBRET.s	46.69 (1.39) ^* ΔBRET.s	35.06 (2.32) ΔBRET.s	38.17 (1.55) ΔBRET.s	44.72 (3.21) ^* ΔBRET.s	29.34 (2.43) ΔBRET.s	134.2 (11.15) ΔBRET.s	123.2 (9.45) ΔBRET.s	119.0 (9.10) ΔBRET.s	126.6 (9.03) ΔBRET.s	114.6 (5.98) ΔBRET.s	125.8 (10.37) ΔBRET.s	123.9 (8.36) ΔBRET.s	pEC50, β-arrestin 2 translocation to CB2 (CB2 [1]; coexpression of GRK1, Table 2): 8.03 (0.06); pEC50, β-arrestin 2 translocation to CB2 (CB2 [1]; coexpression of GRK2, Table 2): 8.28 (0.05) ^*; pEC50, β-arrestin 2 translocation to CB2 (CB2 [1]; coexpression of GRK3, Table 2): 8.17 (0.11); pEC50, β-arrestin 2 translocation to CB2 (CB2 [1]; coexpression of GRK4, Table 2): 8.13 (0.03); pEC50, β-arrestin 2 translocation to CB2 (CB2 [1]; coexpression of GRK5, Table 2): 8.07 (0.07); pEC50, β-arrestin 2 translocation to CB2 (CB2 [1]; coexpression of GRK6, Table 2): 8.12 (0.04); pEC50, β-arrestin 2 translocation to CB2 (CB2 [1]; mock (no GRK), Table 2): 8.15 (0.06); β-arrestin 2 translocation to CB2 (in words) (CB2 [1]; absence of exogenous GRKs): submaximal translocation; pEC50, β-arrestin 1 translocation to CB2 (CB2 [4]; coexpression of GRK1): 7.97 (0.13); pEC50, β-arrestin 1 translocation to CB2 (CB2 [4]; coexpression of GRK2): 8.16 (0.09); pEC50, β-arrestin 1 translocation to CB2 (CB2 [4]; coexpression of GRK3): 8.26 (0.07) ^*; pEC50, β-arrestin 1 translocation to CB2 (CB2 [4]; coexpression of GRK4): 7.98 (0.18); pEC50, β-arrestin 1 translocation to CB2 (CB2 [4]; coexpression of GRK5): 7.97 (0.11); pEC50, β-arrestin 1 translocation to CB2 (CB2 [4]; coexpression of GRK6): 8.01 (0.18); pEC50, β-arrestin 1 translocation to CB2 (CB2 [4]; mock (no GRK)): 7.94 (0.10); β-arrestin 1 translocation to CB2 (in words) (CB2 [4]; absence of exogenous GRKs): submaximal translocation
